From patent US20250026752A1, “POSITIVE ALLOSTERIC MODULATORS OF THE MUSCARINIC ACETYLCHOLINE RECEPTOR M4” (Vanderbilt University, priority 2021, published 2025)

Target: T1, human mAChR M4 (Homo sapiens, UniProt P08173)
T1 construct: expressed in transfected cells; host or cells: CHO-K1 (ATCC), stably expressing hM4 and Gqi5
T1 sequence (P08173 1-479): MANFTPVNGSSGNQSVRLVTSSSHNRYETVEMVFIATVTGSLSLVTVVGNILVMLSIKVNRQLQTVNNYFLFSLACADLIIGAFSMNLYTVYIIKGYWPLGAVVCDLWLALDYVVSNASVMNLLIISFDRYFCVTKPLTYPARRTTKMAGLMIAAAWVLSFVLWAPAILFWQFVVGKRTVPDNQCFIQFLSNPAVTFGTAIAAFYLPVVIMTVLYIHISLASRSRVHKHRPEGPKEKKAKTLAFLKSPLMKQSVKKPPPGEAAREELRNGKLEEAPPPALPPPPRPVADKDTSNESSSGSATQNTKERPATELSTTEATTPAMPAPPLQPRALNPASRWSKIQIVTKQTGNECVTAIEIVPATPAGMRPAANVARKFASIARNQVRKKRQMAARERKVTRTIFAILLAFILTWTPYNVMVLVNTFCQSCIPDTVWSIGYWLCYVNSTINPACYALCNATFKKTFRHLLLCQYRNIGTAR
Assay: mAChR M4 cell-based functional assay: calcium flux (Fluo-4, FDSS), positive allosteric modulator activity on the EC20 acetylcholine response, hM4-Gqi5 CHO-K1 cells
Conditions: for Emax at 30 µM: CHO-K1, human M4, % ACh maximum at 30 μM; for EC50: human M4, PAM activity on EC20 acetylcholine response, calcium flux, read-out: Human M4 EC50
Procedure, shortened: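 CHO-K1 cells stably expressing human M4 with chimeric Gqi5, loaded with Fluo-4 AM for 50 min at 37° C. Compounds (11-point, 1:3 dilutions) added first, then an acetylcholine EC20 at 144 s; calcium read on FDSS at 1 Hz. EC50 is the half-maximal increase above the EC20 baseline, four-parameter logistic fit.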

| Emax at 30 µM [%] | EC50 [nM] | SMILES |
| --- | --- | --- |
| 64 | 4800 | Cc1ccc(Oc2cnc3c(c2)CN(c2ncnc4ccc(Cl)cc24)CC3)c(F)c1 [Compound 145, 6-chloro-4-[3-(2-fluoro-4-methyl-phenoxy)-7,8-dihydro-5H-1,6-naphthyridin-6-yl]quinazoline] |
| 40 | > 10000 | COc1ccc2ncnc(N3CCc4ncc(Oc5ccc(C)cc5F)cc4C3)c2c1 [Compound 146, 4-[3-(2-fluoro-4-methyl-phenoxy)-7,8-dihydro-5H-1,6-naphthyridin-6-yl]-6-methoxy-quinazoline] |
| 54 | 8340 | Cc1ccc(Oc2cnc3c(c2)CN(c2nc(C)nc4ccc(Cl)cc24)CC3)c(F)c1 [Compound 147, 6-chloro-4-[3-(2-fluoro-4-methyl-phenoxy)-7,8-dihydro-5H-1,6-naphthyridin-6-yl]-2-methyl-quinazoline] |
| 88 | 760 | Cc1ccc(F)c(Oc2cnc3c(c2)CN(c2ncnc4ccc(F)cc24)CC3)c1 [Compound 148, 6-fluoro-4-[3-(2-fluoro-5-methyl-phenoxy)-7,8-dihydro-5H-1,6-naphthyridin-6-yl]quinazoline] |
| 97 | 170 | Clc1ccc2nc(Cl)nc(N3CCc4ncc(Br)cc4C3)c2c1 [Compound 149, 4-(3-bromo-7,8-dihydro-5H-1,6-naphthyridin-6-yl)-2,6-dichloro-quinazoline] |
| 105 | 100 | Fc1ccc2nc(Cl)nc(N3CCc4ncc(Br)cc4C3)c2c1 [Compound 150, 4-(3-bromo-7,8-dihydro-5H-1,6-naphthyridin-6-yl)-2-chloro-6-fluoro-quinazoline] |
| 102 | 110 | Fc1cc2ncnc(N3CCc4ncc(C(F)(F)F)cc4C3)c2cc1F [Compound 151, 6,7-difluoro-4-[3-(trifluoromethyl)-7,8-dihydro-5H-1,6-naphthyridin-6-yl]quinazoline] |
| 72 | 5290 | Cc1ccc(F)c(Oc2cnc3c(c2)CN(c2ncnc4ccc(Cl)cc24)CC3)c1 [Compound 152, 6-chloro-4-[3-(2-fluoro-5-methyl-phenoxy)-7,8-dihydro-5H-1,6-naphthyridin-6-yl]quinazoline] |
| 38 | > 10000 | COc1ccc2ncnc(N3CCc4ncc(Oc5cc(C)ccc5F)cc4C3)c2c1 [Compound 153, 4-[3-(2-fluoro-5-methyl-phenoxy)-7,8-dihydro-5H-1,6-naphthyridin-6-yl]-6-methoxy-quinazoline] |
| 62 | 7690 | Cc1ccc(F)c(Oc2cnc3c(c2)CN(c2nc(C)nc4ccc(Cl)cc24)CC3)c1 [Compound 154, 6-chloro-4-[3-(2-fluoro-5-methyl-phenoxy)-7,8-dihydro-5H-1,6-naphthyridin-6-yl]-2-methyl-quinazoline] |
| 98 | 60 | CC1Cc2ncc(C(F)(F)F)cc2CN1c1ncnc2ccc(F)cc12 (stereo not shown) [Compound 155, 6-fluoro-4-[7-methyl-3-(trifluoromethyl)-7,8-dihydro-5H-1,6-naphthyridin-6-yl]quinazoline] |
| 99 | 220 | Cc1nc(N2Cc3cc(C(F)(F)F)cnc3CC2C)c2cc(F)ccc2n1 (stereo not shown) [Compound 156, 6-fluoro-2-methyl-4-[7-methyl-3-(trifluoromethyl)-7,8-dihydro-5H-1,6-naphthyridin-6-yl]quinazoline] |
| 95 | 220 | Cc1nc(N2Cc3cc(C(F)(F)F)cnc3C(C)C2)c2cc(F)ccc2n1 (stereo not shown) [Compound 157, 6-fluoro-2-methyl-4-[8-methyl-3-(trifluoromethyl)-7,8-dihydro-5H-1,6-naphthyridin-6-yl]quinazoline] |
| 80 | 270 | Fc1cc2ncnc(N3CCc4ncc(Oc5ccccc5F)cc4C3)c2cc1F [Compound 158, 6,7-difluoro-4-[3-(2-fluorophenoxy)-7,8-dihydro-5H-1,6-naphthyridin-6-yl]quinazoline] |
